Data reported in paper PMC4020785 (PLoS ONE, 2014).

What was measured:
PKC [1] = assay: PKC inhibitors on diterpene-induced GFP expression in J-Lat clones 9.2 and 10.6; type: cell-based
Method: (§1) For analysis of cell surface marker expression, MT-4 cells and bead-selected CD4+ T cells (described above) were incubated with 1 µM of each compound (ING-A, ING-B, ING-C, prostratin, PMA, and bryostatin-1) at 37°C for 48 h. After incubation, cells were washed with PBS and incubated for 20 min at room temperature with antibodies against CD3-Brilliant Violet 510 (clone OKT3 – Biolegend), CD4-Qdot 655 (clone 53.5 - Life Technologies), CXCR4-PE (clone 1265 - BD Biosciences), CCR5-PerCP-Cy5.5 (clone 3A9 - BD Biosciences), CD69-Pacific Blue (clone FN50 – BD Biosciences), CD38-FITC (clone AT-1 – Stem Cell Technologies), CD25-APC (clone 2A3 – BD Biosciences), HLA-DR-Qdot 605 (clone TÜ36 – Life Technologies) and a marker for annexin V-FITC (Life Technologies). Cells (both MT-4 cells and CD4+ T cells) were initially incubated for 2 h with different PKC inhibitors (GÖ6983, GÖ6976 or RO-31-8220). Then, ING-B, prostratin or PMA at 1 µM or TNF-α at 10 ng/mL were added to each condition and incubation was carried out for 24 h at 37°C. Similar protocol was used for the analysis of PKC inhibitors in J-Lat clones 9.2 and 10.6. GFP expression, surface marker expression and activation marker were evaluated on a LSR Fortessa cytometer (BD Biosciences). Data analysis was performed using FlowJo software (Tree Star).

PKC [2] = assay: PKC inhibitors on ING-B-driven receptor downregulation in MT-4 cells; type: cell-based; settings: 0.1 µM inhibitor, then 1 µM ING-B 24 h
Method: as §1

PKC [3] = assay: PKC inhibitors on ING-B-driven receptor downregulation in CD4+ T lymphocytes; type: cell-based, human; settings: 0.1 µM inhibitor in the presence of 1 µM ING-B
Method: as §1

[4] = Cytotoxicity (CC50) in human PBMCs; type: cell-based; settings: human PBMCs activated with IL-2 and PHA-P; Human PBMC, Subtype C (R5)
Method: (§2) Cytotoxicity of ISDs was evaluated in J-Lat (clones 9.2 and 10.6) and PHA-activated human PBMCs. Cells were added to wells in a 96-well plate in the presence of various concentrations of ISDs, PMA or prostratin in sextuplicates for 24 and 72 h. Cell viability was determined using the CellTiter-blue fluorescence Cell Viability Assay (Promega) following the manufacturer's instruction.
(§3) Human PMBCs were incubated with 100 U recombinant IL-2 (Sigma-Aldrich) and 5 µg/mL phytohemagglutinin-P (PHA-P) (Difco) for 5 days at 37°C. MT-4 cells (1×10^6) or treated PBMCs (1.2×10^8) were infected with HIV-1 clone NL-4.3 or ZM247Fv-1 (MOI of 0.001) by spinoculation (1200 g at room temperature for 2 h). Uninfected cells were used as negative control and were also subjected to the spinoculation process. After spinoculation, supernatants were discarded and cells were resuspended in 10 mL of R10. Cells from each condition were then added to wells (96-well plate) containing serial dilutions of each ISD. For MT-4 cells, each dilution was done in sextuplicates and, for PBMCs, in triplicates. Cells were also incubated with different concentrations of ZDV as positive control. After 5 days in culture, Cell Titer Blue was added to each well and cells were incubated for additional 24 h. The median effective concentration for each drug is defined as EC50. In parallel with the infectivity assay, the same cell types were treated with different concentrations of drugs to determine their cytotoxicity, following the protocol described above. Drug concentration that results in a 50% decrease in viable cells is defined as the CC50 for each compound. EC50 was calculated according to Spearman-Karber and therapeutic index was defined by the ratio between CC50 and EC50 [55].

[5] = system: HIV-1 clone ZM247Fv-1 (subtype C); assay: HIV-1 ZM247Fv-1 (subtype C) infection of human PBMCs, Cell Titer Blue readout; type: cell-based; settings: for TI (CC50/EC50): Human PBMC, Subtype C (R5); for EC50: Human immunodeficiency virus 1, PBMC
Method: as §3
(§4) All statistical analyses were performed using program GraphPism version 6.0. Titrations for TCID50 infectivity were calculated by the Spearman-Karber method. Dose response curves to ISDs with HIV-1 subtype B and C were done using non-linear regression and were fit to the Hill equation.

HIV LTR in J-Lat clones = assay: LTR-driven GFP expression in J-Lat clones; type: cell-based, HIV-1; settings: J-Lat clones 9.2 and 10.6, 48 h, all concentrations tested
Method: J-Lat cells are Jurkat cells stably transfected by an HIV genome whose nef sequence was replaced by the GFP gene. Also, a frameshift mutation was introduced to the env gene to prevent virus spread. […] To test the ISDs, a million cells of each clone were treated with different concentrations of each compound (ING-A, ING-B, ING-C, prostratin and PMA) at 37°C. TNF-α (10 ng/mL) was used as a positive control. After 48 h, cells were collected, washed with saline solution (PBS) and GFP expression was evaluated in a FACScalibur cytometer (BD Biosciences). Data were analyzed with Cell Quest Pro software (BD Biosciences).

[6] = Cytotoxicity (CC50) in MT-4 cells; type: cell-based; settings: human, Subtype B (X4)
Method: as §2, §3

[7] = system: HIV-1 clone NL4.3 (subtype B); assay: HIV-1 NL4.3 (subtype B) infection of MT-4 cells, Cell Titer Blue readout; type: cell-based; settings: for EC50: Human immunodeficiency virus 1, MT4; for TI (CC50/EC50): MT-4 cells, Subtype B (X4)
Method: as §3, §4

[8] = system: HIV-1 clone NL4.3 (subtype B); assay: HIV-1 NL4.3 (subtype B) infection of human PBMCs, Cell Titer Blue readout; type: cell-based; settings: for TI (CC50/EC50): Human PBMC, Subtype B (X4); for EC50: Human immunodeficiency virus 1, PBMC
Method: as §3, §4

[9] = system: HIV-1 clone ZM247Fv-1 (subtype C); assay: HIV-1 ZM247Fv-1 (subtype C) infection of MT-4 cells, Cell Titer Blue readout; type: cell-based; settings: for EC50: Human immunodeficiency virus 1, MT4; for TI (CC50/EC50): MT-4 cells, Subtype C (R5)
Method: as §3, §4

HIV = system: HIV; design: method as in PMID 8787923; settings: MT-4 cells; cited from earlier work

SMILES: Cn1c2ccccc2c2c3c(c4c5ccccc5n(CCC#N)c4c21)C(=O)NC3 [GÖ6976]
- effect on ISD induction of GFP expression (PKC [1]; 0.1 µM inhibitor): little effect
- effect on ING-B-driven receptor downregulation (PKC [2]): little effect on blocking receptor downregulation

SMILES: COc1ccc2c(c1)c(C1=C(c3c[nH]c4ccccc34)C(=O)NC1=O)cn2CCCN(C)C [GÖ6983]
- blocking of GFP expression induced by ING-B (PKC [1]; J-Lat clones 9.2 and 10.6, pre-treatment, then ING-B 24 h): strongly blocked GFP expression
- effect on ING-B-driven receptor downregulation (PKC [2]): not able to downregulate the expression of CD4 and CXCR4
- overexpression of CD4 and CCR5 compared to untreated control (PKC [3]): up to 2.5 fold

SMILES: CC1=C[C@]23C(=O)[C@@H](C=C(CO)[C@@H](O)[C@]2(O)[C@H]1OC(=O)/C=C/c1ccccc1)[C@H]1[C@@H](C[C@H]3C)C1(C)C [ING-A, ingenol-3-trans-cinnamate]
- CC50 at 5 days [4]: 34 µM
- TI (CC50/EC50) [5]: 693.9
- EC50 [5]: 0.049 µM
- levels of GFP expression, rank order (HIV LTR in J-Lat clones): PMA = ING-B > ING-A = ING-C > prostratin
- CC50 at 5 days [6]: 25 µM
- EC50 [7]: 0.037 µM
- TI (CC50/EC50) [7]: 675.6
- TI (CC50/EC50) [8]: 641.5
- EC50 [8]: 0.053 µM
- EC50 [9]: 0.038 µM
- TI (CC50/EC50) [9]: 657.9

SMILES: CCCCCCCCCCCC(=O)O[C@H]1C(C)=C[C@]23C(=O)[C@@H](C=C(CO)[C@@H](O)[C@]12O)[C@H]1[C@@H](C[C@H]3C)C1(C)C [ING-C, ingenol-3-dodecanoate]
- CC50 at 5 days [4]: 38 µM
- TI (CC50/EC50) [5]: 413
- EC50 [5]: 0.092 µM
- levels of GFP expression, rank order (HIV LTR in J-Lat clones): PMA = ING-B > ING-A = ING-C > prostratin
- CC50 at 5 days [6]: 27 µM
- EC50 [7]: 0.041 µM
- TI (CC50/EC50) [7]: 658.5
- TI (CC50/EC50) [8]: 730.7
- EC50 [8]: 0.052 µM
- EC50 [9]: 0.036 µM
- TI (CC50/EC50) [9]: 750

SMILES: CC(=O)OCC1=C[C@@H]2C(=O)[C@]3(C=C(C)[C@H](OC(C)=O)[C@@]3(O)[C@@H]1OC(C)=O)[C@H](C)C[C@@H]1[C@H]2C1(C)C [ITA, Ingenol 3,5,20-triacetate]
- concentration inhibiting HIV replication (as low as) (HIV): ≥ 0.05 µM
